One assay addresses Human RNR (human M1 subunit and human M2 subunit) (Homo sapiens (Human), UniProt P23921). The assay can be described thus: Human RNR inhibition effect (formation of dCDP from CDP, HPLC). The class given is biochemical. The following applies: human M1 and M2 proteins, 10 μM CDP, 37° C. for 30 minutes; read-out: RNR Enzyme inhibitory activity IC50. The method, then: The inhibitory activity against the ribonucleotide reduction reaction (hereinafter referred to as RNR reaction) of the test compound was determined by measuring the formation of deoxycytidine diphosphate (hereinafter referred to as dCDP) from cytidine diphosphate (hereinafter referred to as CDP) by the following method.
Human M1 subunit and human M2 subunit (mutant lacking amino terminal 59 amino acids), which are fused a histidine tag at the amino terminus, are overexpressed in Escherichia coli and are solubilized after collection, and histidine tagged human M1 and M2 proteins were purified on a nickel chelate column.
First, test compounds were serially diluted with DMSO. Next, human M1 protein and human M2 protein were added to an aqueous albumin solution derived from 0.02% fetal bovine serum, a DMSO solution of the compound of the present invention or the control DMSO solution (final concentration of DMSO was 1%) was added, and the mixture was allowed to stand for 20 minutes. Thereafter, the reaction buffer [50 mM HEPES buffer (pH 7.2) at the final concentration, 4 mM magnesium acetate at the final concentration, 100 mM potassium chloride at the final concentration, 6 mM dithiothreitol at the final concentration, 2 mM adenosine triphosphate at the final concentration, 0.24 mM nicotinamide adenine dinucleotide phosphate at final concentration] and 10 μM CDP at the final concentration were added and incubated at 37° C. for 30 minutes to perform RNR reaction. Immediately after the reaction, the reaction was stopped by heating at 100° C. for 15 minutes, followed by centrifugation at 10,000 rpm for 10 minutes. After the centrifugation, a portion (5 μL) of the resulting supernatant was analyzed with a high performance liquid chromatography (Shimadzu Corporation, Prominence) using Shim-pack XR-ODS (manufactured by Shimadzu GLC Co., 3.0×100 mm).
Chain of Human RNR (human M1 subunit and human M2 subunit) (P23921 whole entry, the tested form may be a part): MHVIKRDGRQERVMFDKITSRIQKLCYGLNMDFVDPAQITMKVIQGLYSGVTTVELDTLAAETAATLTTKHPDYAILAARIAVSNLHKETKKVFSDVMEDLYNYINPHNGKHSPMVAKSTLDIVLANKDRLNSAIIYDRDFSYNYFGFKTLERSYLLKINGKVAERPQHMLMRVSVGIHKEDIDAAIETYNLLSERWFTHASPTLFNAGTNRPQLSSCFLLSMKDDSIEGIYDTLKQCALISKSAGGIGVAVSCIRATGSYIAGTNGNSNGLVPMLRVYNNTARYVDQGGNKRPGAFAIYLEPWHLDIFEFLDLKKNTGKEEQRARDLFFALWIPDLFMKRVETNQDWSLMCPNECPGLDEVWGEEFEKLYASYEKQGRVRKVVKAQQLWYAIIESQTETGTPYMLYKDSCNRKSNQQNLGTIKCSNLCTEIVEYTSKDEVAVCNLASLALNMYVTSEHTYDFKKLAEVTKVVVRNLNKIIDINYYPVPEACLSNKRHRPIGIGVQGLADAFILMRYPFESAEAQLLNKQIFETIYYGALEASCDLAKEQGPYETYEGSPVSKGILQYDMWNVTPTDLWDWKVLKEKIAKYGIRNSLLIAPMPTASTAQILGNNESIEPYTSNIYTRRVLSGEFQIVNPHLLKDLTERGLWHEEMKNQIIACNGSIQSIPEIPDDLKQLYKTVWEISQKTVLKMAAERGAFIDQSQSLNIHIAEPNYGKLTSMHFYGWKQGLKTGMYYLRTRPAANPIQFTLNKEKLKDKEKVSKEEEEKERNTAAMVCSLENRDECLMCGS
The term IC50 denotes the midpoint of a concentration-inhibition curve. Take `[2H]C([2H])([2H])C1(O)CCOc2c(S(=O)(=O)N[C@H](c3n[nH]c(=O)o3)[C@H](C)c3c(F)ccc(C)c3C)ccc(Cl)c21` (single isomer, unassigned) [Example 200A]: the IC50 came out at 30 nM.

Take `[2H]C([2H])([2H])C1(O)CCOc2c(S(=O)(=O)N[C@H](c3n[nH]c(=O)o3)[C@H](C)c3c(F)ccc(C)c3C)ccc(Cl)c21` (single isomer, unassigned) [Example 200B]: the half-maximal inhibitory concentration (IC50) was 80 nM.

In the case of `Cc1ccc(F)c([C@@H](C)[C@H](NS(=O)(=O)c2ccc(Cl)c3c2OCCC3(C)O)c2n[nH]c(=O)o2)c1C` (single isomer, unassigned) [Example 207A], the IC50 was 130 nM.

As for `Cc1ccc(F)c([C@@H](C)[C@H](NS(=O)(=O)c2ccc(Cl)c3c2OCCC3(C)O)c2n[nH]c(=O)o2)c1C` (single isomer, unassigned) [Example 207B], the IC50 was 90 nM.

For `COc1c(S(=O)(=O)N[C@H](c2n[nH]c(=O)o2)[C@H](C)c2c(F)ccc(C)c2C)ccc(Cl)c1C(C)O` (single isomer, unassigned) [Example 208A], the IC50 was determined as 100 nM.

`COc1c(S(=O)(=O)N[C@H](c2n[nH]c(=O)o2)[C@H](C)c2c(F)ccc(C)c2C)ccc(Cl)c1C(C)O` (single isomer, unassigned) [Example 208B]: the IC50 turned out to be 60 nM.

As for `Cc1c(Cl)ccc(F)c1[C@@H](C)[C@H](NS(=O)(=O)c1ccc(Cl)c2c1OCCC2(C)O)c1n[nH]c(=O)o1` (single isomer, unassigned) [Example 209A], the IC50 came out at 100 nM.

For `Cc1c(Cl)ccc(F)c1[C@@H](C)[C@H](NS(=O)(=O)c1ccc(Cl)c2c1OCCC2(C)O)c1n[nH]c(=O)o1` (single isomer, unassigned) [Example 209B], the concentration for half-maximal inhibition (IC50) is 180 nM.

Turning to `Cc1ccc(F)c([C@@H](C)[C@H](NS(=O)(=O)c2ccc(Cl)c3c2OCCC3(O)C(F)(F)F)c2n[nH]c(=O)o2)c1C` (single isomer, unassigned) [Example 220A], the half-maximal inhibitory concentration (IC50) was found to be 60 nM.

Take `Cc1ccc(F)c([C@@H](C)[C@H](NS(=O)(=O)c2ccc(Cl)c3c2OCCC3(O)C(F)(F)F)c2n[nH]c(=O)o2)c1C` (single isomer, unassigned) [Example 220B]: the IC50 was found to be 80 nM.

Consider `Cc1c(Br)ccc(F)c1[C@@H](C)[C@H](NS(=O)(=O)c1ccc(Cl)c2c1OCCC2(C)O)c1n[nH]c(=O)o1` (single isomer, unassigned) [Example 222A], for which the IC50 stood at 80 nM.

In the case of `Cc1c(Br)ccc(F)c1[C@@H](C)[C@H](NS(=O)(=O)c1ccc(Cl)c2c1OCCC2(C)O)c1n[nH]c(=O)o1` (single isomer, unassigned) [Example 222B], the IC50 worked out at 60 nM.

Take `Cc1ccc(F)c([C@@H](C)[C@H](NS(=O)(=O)c2ccc(F)c3c2OCCC3(C)O)c2n[nH]c(=O)o2)c1C` (single isomer, unassigned) [Example 224B]: the IC50 worked out at 100 nM.

For `[2H]C([2H])([2H])C1(O)CCOc2c(S(=O)(=O)N[C@H](c3n[nH]c(=O)o3)[C@H](C)c3c(F)ccc(Br)c3C)ccc(Cl)c21` (single isomer, unassigned) [Example 226A], the IC50 amounted to 50 nM.

As for `[2H]C([2H])([2H])C1(O)CCOc2c(S(=O)(=O)N[C@H](c3n[nH]c(=O)o3)[C@H](C)c3c(F)ccc(Br)c3C)ccc(Cl)c21` (single isomer, unassigned) [Example 226B], the IC50 came out at 70 nM.

Consider `Cc1c(Br)ccc(F)c1[C@@H](C)[C@H](NS(=O)(=O)c1ccc(F)c2c1OCCC2(C)O)c1n[nH]c(=O)o1` (single isomer, unassigned) [Example 227A], for which the IC50 came to 50 nM.

With `Cc1c(Br)ccc(F)c1[C@@H](C)[C@H](NS(=O)(=O)c1ccc(F)c2c1OCCC2(C)O)c1n[nH]c(=O)o1` (single isomer, unassigned) [Example 227B], the IC50 was 90 nM.

With `[2H]C([2H])([2H])C1(O)CCOc2c(S(=O)(=O)N[C@H](c3n[nH]c(=O)o3)[C@H](C)c3c(F)ccc(Cl)c3C)ccc(Cl)c21` (single isomer, unassigned) [Example 228A], the IC50 came out at 80 nM.

On to `[2H]C([2H])([2H])C1(O)CCOc2c(S(=O)(=O)N[C@H](c3n[nH]c(=O)o3)[C@H](C)c3c(F)ccc(Cl)c3C)ccc(Cl)c21` (single isomer, unassigned) [Example 228B], for which the IC50 was found to be 140 nM.

With `Cc1c(Cl)ccc(F)c1[C@@H](C)[C@H](NS(=O)(=O)c1ccc(F)c2c1OCCC2(C)O)c1n[nH]c(=O)o1` (single isomer, unassigned) [Example 229A], the IC50 amounted to 60 nM.

In the case of `Cc1c(Cl)ccc(F)c1[C@@H](C)[C@H](NS(=O)(=O)c1ccc(F)c2c1OCCC2(C)O)c1n[nH]c(=O)o1` (single isomer, unassigned) [Example 229B], the IC50 is 110 nM.

Consider `Cc1ccc(F)c([C@@H](C)[C@H](NS(=O)(=O)c2ccc(F)c3c2OCCC3O)c2n[nH]c(=O)o2)c1C` (single isomer, unassigned) [Example 230A], for which the IC50 was determined as 120 nM.

In the case of `Cc1ccc(F)c([C@@H](C)[C@H](NS(=O)(=O)c2ccc(F)c3c2OCCC3O)c2n[nH]c(=O)o2)c1C` (single isomer, unassigned) [Example 230B], the IC50 is 50 nM.

As to `C[C@H](c1c(F)ccc2ccccc12)[C@H](NS(=O)(=O)c1ccc(Cl)c2c1OCCC2O)c1n[nH]c(=O)o1` (single isomer, unassigned) [Example 234A], the IC50 is 310 nM.

With `Cc1ccc(F)c([C@@H](C)[C@H](NS(=O)(=O)c2ccc(Cl)c3c2OCCC3O)c2n[nH]c(=O)o2)c1C` (single isomer, unassigned) [Example 235A], the IC50 was found to be 80 nM.

As to `Cc1ccc(F)c([C@@H](C)[C@H](NS(=O)(=O)c2ccc(Cl)c3c2OCCC3O)c2n[nH]c(=O)o2)c1C` (single isomer, unassigned) [Example 235B], the IC50 came out at 70 nM.

For `Cc1ccc(F)c([C@@H](C)[C@H](NS(=O)(=O)c2cccc3c2OC(C)(C)CC3O)c2n[nH]c(=O)o2)c1C` (single isomer, unassigned) [Example 237A], the IC50 worked out at 290 nM.

As to `CCc1ccc(F)c([C@@H](C)[C@H](NS(=O)(=O)c2ccc(Cl)c3c2OCCC3O)c2n[nH]c(=O)o2)c1C` (single isomer, unassigned) [Example 239A], the IC50 turned out to be 200 nM.

Consider `Cc1c(Br)ccc(F)c1[C@@H](C)[C@H](NS(=O)(=O)c1ccc(Cl)c2c1OCCC2O)c1n[nH]c(=O)o1` (single isomer, unassigned) [Example 243A], for which the IC50 is 70 nM.

In the case of `Cc1c(Br)ccc(F)c1[C@@H](C)[C@H](NS(=O)(=O)c1ccc(Cl)c2c1OCCC2O)c1n[nH]c(=O)o1` (single isomer, unassigned) [Example 243B], the half-maximal inhibitory concentration (IC50) was determined as 100 nM.

For `Cc1ccc(F)c([C@@H](C)[C@H](NS(=O)(=O)c2ccc(C(F)(F)F)c3c2OCCC3O)c2n[nH]c(=O)o2)c1C` (single isomer, unassigned) [Example 244A], the IC50 came to 90 nM.

Turning to `Cc1ccc(F)c([C@@H](C)[C@H](NS(=O)(=O)c2ccc(C(F)(F)F)c3c2OCCC3O)c2n[nH]c(=O)o2)c1C` (single isomer, unassigned) [Example 244B], the IC50 worked out at 220 nM.

Consider `Cc1c(Cl)ccc(F)c1[C@@H](C)[C@H](NS(=O)(=O)c1ccc(Cl)c2c1OCCC2(C)N)c1n[nH]c(=O)o1` (single isomer, unassigned) [Example 330A], for which the IC50 came to 120 nM.

Take `Cc1c(Cl)ccc(F)c1[C@@H](C)[C@H](NS(=O)(=O)c1ccc(Cl)c2c1OCCC2(C)N)c1n[nH]c(=O)o1` (single isomer, unassigned) [Example 330B]: the IC50 came to 460 nM.

Regarding `Cc1c(Cl)ccc(F)c1[C@@H](C)[C@H](NS(=O)(=O)c1ccc(Cl)c2c1OCCC2O)c1n[nH]c(=O)o1` (stereo partly drawn) [Example 238A, 5-chloro-N-((1S,2R)-2-(3-chloro-6-fluoro-2-methylphenyl)-1-(5-oxo-4,5-dihydro-1,3,4-oxadiazol-2-yl)propyl)-4-hydroxychroman-8-sulfonamide], the IC50 is 110 nM.

Still in this assay, the particulars now being: human M1 and M2 subunits; formation of dCDP from CDP, 10 μM CDP, 37° C. for 30 minutes; read-out: RNR Enzyme inhibitory activity IC50.
Regarding `C=C(c1c(F)ccc(C)c1C)[C@H](NS(=O)(=O)c1ccc(Cl)cc1OC)c1n[nH]c(=O)o1` [Example 185, (S)-4-chloro-N-(2-(6-fluoro-2,3-dimethylphenyl)-1-(5-oxo-4,5-dihydro-1,3,4-oxadiazol-2-yl)allyl)-2-methoxybenzenesulfonamide], the half-maximal inhibitory concentration (IC50) was determined as 600 nM.
